Measured values published in patent US10239880B2, “Cyclopenta[d]pyrimidines and substituted cyclopenta[d]pyrimidines as antitubulin and microtubule targeting agents, monocyclic pyrimidines as tubulin inhibitors, and pyrrolopyrimidines as targeted antifolates and tubulin and multiple receptor tyrosine kinase inhibition and antitumor agents” (Duquesne University of the Holy Spirit, priority 2015, dated 2019).
Where two headings read alike, the source gives them in different places. Each block holds one compound with its values, some of them ahead of it.

Columns and labels:
[1] = tested on: β-III overexpressing HeLa; assay: Antiproliferative activity, β-III overexpressing HeLa; assay type: cell-based; settings: for IC50: Homo sapiens, HeLa, Table 7, read-out: IC50 ± SD β-III overexpressing HeLa
Description: (§1) Another clinically relevant drug resistance mechanism of tubulin-targeting agents is the overexpression of the βIII isotype of tubulin.

[2] = tested on: Parental SK-OV-3; assay: Antiproliferative activity, parental SK-OV-3; assay type: cell-based; settings: Homo sapiens, Table 6, read-out: IC50 ± SD Parental SK-OV-3
[3] = tested on: Pgp expressing SK-OV-3 MDR1-6-6; assay: Antiproliferative activity, Pgp expressing SK-OV-3 MDR1-6-6; assay type: cell-based; settings: Homo sapiens, SK-OV-3; Table 6; read-out: IC50 ± SD Pgp expressing SK-OV-3 MDR1-6-6
[4] = tested on: Parental HeLa; assay: Antiproliferative activity, parental HeLa; assay type: cell-based; settings: Homo sapiens, Table 7, read-out: IC50 ± SD Parental HeLa
Description: as §1

[5] = tested on: A-10 cells; assay: Microtubule depolymerization, cell-based phenotypic assay in A-10 cells
[6] = tested on: KB (RFC/FRα/PCFT); assay: Growth inhibition of KB tumor cells; assay type: cell-based, human
Procedure: Cell proliferation was assayed with CellTiter-Blue™ with a fluorescent plate reader.

[7] = tested on: RT16 (FRα); assay: Proliferation inhibition, FRα-expressing RT16 cells; assay type: cell-based, Chinese hamster
Description: (§2) AGF215, AGF234 and AGF263 were compared to AGF23 as inhibitors of proliferation of engineered Chinese hamster ovary (CHO) cells expressing human PCFT (R2/PCFT4), FRα (RT16), or RFC (PC43-10).

[8] = tested on: PC43-10 (RFC); assay: Proliferation inhibition, RFC-expressing PC43-10 cells; assay type: cell-based, Chinese hamster; settings: Table 11
Description: as §2

[9] = tested on: MDA-MB-435 cancer cells; assay: Antiproliferative effect in MDA-MB-435 cancer cells (SRB assay); assay type: cell-based; settings: Table 3a, read-out: IC50 ± SD in MDA-435 Cells
[10] = tested on: CAM; assay: CAM (gi50); settings: Table 3b; unit inferred
[11] = tested on: A431; assay: A431 cytotoxicity; settings: Homo sapiens, A-431, read-out: A431 cytotoxicity, Table 3b; unit inferred
[12] = molecular target: EGFR (Homo sapiens, UniProt P00533); assay: Kinase inhibition, whole-cell assay, EGFR; assay type: cell-based; settings: Table 3b; unit inferred; read-out: EGFR kinase inhibition
[13] = molecular target: VEGFR2 (Homo sapiens, UniProt P35968); assay: Kinase inhibition, whole-cell assay, VEGFR2 (Flk-1); assay type: cell-based; settings: Table 3b; unit inferred
[14] = molecular target: PDGFR-β (Homo sapiens, UniProt P09619); assay: Kinase inhibition, whole-cell assay, PDGFR-β; assay type: cell-based; settings: Table 3b; unit inferred; read-out: PDGFR kinase inhibition
[15] = tested on: U251; assay: U251 cytotoxicity; assay type: cell-based; settings: Homo sapiens, U-251; Table 3b; unit inferred
[16] = Rattus norvegicus, A10, read-out: EC50 in A-10 cells (Concentration that causes 50% tubulin loss in A-10 cells), Table 4, Section II compounds
[17] = Table 3a, unit inferred, read-out: EC50 for Microtubule Depolymerization in A · 10 Cells
[18] = Rattus norvegicus, A10, Table 3a, unit inferred, read-out: EC50 for Microtubule Depolymerization in A · 10 Cells

Sequence of VEGFR2 (P35968 20-1356, species assumed): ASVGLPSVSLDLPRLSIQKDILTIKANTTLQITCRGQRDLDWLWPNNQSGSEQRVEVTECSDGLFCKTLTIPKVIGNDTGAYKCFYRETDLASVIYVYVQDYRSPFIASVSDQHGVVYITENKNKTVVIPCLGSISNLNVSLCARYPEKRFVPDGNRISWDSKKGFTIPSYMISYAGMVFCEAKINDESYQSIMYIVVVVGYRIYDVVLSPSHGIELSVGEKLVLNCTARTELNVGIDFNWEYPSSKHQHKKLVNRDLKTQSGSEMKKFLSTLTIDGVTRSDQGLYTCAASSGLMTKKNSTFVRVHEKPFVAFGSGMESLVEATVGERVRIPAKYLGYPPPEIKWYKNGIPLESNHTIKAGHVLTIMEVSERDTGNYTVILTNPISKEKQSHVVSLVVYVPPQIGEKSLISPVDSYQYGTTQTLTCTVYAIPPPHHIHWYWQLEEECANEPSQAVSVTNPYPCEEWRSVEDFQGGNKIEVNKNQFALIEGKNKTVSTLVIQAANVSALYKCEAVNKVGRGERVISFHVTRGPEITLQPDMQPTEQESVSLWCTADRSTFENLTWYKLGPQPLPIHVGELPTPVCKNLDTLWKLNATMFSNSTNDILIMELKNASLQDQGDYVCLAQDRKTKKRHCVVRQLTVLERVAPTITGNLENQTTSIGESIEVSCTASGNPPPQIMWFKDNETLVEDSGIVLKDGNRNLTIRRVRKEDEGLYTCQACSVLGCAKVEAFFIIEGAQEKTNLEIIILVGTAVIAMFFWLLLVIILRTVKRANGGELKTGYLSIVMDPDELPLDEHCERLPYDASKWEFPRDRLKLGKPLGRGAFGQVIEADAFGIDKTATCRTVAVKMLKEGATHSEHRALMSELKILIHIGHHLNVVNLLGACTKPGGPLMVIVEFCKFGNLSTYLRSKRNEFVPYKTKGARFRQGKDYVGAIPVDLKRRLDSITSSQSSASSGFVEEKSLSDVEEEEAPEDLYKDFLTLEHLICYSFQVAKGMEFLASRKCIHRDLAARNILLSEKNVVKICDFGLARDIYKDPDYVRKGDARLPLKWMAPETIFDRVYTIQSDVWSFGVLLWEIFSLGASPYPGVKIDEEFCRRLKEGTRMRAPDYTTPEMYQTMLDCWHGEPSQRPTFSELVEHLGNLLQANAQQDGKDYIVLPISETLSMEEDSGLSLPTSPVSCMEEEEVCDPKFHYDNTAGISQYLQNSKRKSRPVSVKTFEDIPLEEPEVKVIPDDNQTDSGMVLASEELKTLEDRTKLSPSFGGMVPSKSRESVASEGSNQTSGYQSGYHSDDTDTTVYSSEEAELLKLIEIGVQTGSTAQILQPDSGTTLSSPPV
Sequence of PDGFR-β (P09619 33-1106, species assumed): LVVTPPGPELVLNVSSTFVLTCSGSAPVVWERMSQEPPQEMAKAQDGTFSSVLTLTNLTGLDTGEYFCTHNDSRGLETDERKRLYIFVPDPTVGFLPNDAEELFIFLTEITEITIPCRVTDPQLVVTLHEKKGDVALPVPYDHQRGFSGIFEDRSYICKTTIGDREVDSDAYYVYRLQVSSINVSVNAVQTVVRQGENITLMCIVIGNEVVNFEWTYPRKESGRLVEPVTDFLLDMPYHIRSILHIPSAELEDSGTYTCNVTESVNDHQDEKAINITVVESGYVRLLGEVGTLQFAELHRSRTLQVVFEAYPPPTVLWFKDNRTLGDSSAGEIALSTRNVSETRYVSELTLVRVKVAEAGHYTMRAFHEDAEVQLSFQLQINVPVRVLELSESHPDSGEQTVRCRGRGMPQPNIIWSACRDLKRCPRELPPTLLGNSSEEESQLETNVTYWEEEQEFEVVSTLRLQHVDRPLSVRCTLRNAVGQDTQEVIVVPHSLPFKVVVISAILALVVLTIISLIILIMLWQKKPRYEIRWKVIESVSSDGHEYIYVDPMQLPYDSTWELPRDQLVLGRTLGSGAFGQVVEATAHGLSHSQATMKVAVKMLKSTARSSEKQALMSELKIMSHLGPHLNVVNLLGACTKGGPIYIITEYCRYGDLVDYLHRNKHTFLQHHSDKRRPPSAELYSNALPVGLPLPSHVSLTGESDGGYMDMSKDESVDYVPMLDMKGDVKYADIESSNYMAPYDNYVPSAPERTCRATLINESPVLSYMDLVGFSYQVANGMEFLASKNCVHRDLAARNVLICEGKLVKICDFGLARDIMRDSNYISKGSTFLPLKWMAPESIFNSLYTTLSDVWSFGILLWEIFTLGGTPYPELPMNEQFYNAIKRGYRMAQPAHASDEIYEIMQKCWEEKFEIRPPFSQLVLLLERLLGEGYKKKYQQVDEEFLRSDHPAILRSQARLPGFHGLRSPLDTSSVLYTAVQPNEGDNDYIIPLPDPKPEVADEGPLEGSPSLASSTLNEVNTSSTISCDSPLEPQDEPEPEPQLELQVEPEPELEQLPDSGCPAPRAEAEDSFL
Sequence of EGFR (P00533 25-1210, species assumed): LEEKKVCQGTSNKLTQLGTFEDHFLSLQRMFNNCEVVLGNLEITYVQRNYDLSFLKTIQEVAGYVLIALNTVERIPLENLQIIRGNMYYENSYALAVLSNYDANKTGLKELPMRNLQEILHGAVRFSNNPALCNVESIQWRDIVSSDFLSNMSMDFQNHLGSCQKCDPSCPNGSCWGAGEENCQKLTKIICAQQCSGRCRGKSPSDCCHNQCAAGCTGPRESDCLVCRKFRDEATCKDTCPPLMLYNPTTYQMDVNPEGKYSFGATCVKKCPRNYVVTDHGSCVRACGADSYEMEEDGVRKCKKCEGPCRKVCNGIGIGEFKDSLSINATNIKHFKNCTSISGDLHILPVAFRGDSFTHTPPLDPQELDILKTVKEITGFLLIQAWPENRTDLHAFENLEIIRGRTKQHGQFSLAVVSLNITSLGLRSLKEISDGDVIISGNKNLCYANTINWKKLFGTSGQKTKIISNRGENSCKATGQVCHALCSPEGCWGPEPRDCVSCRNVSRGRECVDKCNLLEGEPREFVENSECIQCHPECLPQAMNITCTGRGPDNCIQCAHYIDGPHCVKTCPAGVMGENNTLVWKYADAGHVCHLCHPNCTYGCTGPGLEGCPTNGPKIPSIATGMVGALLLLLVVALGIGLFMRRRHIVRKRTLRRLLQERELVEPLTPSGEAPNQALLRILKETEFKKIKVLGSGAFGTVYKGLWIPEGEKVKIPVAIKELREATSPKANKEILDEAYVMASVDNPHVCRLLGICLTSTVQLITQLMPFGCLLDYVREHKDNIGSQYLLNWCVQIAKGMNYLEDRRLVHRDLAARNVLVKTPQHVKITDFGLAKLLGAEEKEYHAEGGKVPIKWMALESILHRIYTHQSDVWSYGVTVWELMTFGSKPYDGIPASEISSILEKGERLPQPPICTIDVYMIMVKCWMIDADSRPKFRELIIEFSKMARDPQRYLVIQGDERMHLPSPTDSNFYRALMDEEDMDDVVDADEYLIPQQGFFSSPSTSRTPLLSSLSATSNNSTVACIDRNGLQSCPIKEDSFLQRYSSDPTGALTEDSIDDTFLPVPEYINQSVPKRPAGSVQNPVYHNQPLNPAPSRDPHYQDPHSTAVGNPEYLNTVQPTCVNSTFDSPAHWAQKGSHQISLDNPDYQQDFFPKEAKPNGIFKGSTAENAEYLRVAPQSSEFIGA

Compound: COc1ccc([C@H](C)N(C)c2nc(C)nc3c2CCC3)cc1 [Compound 10]
EC50 [5, 16]: > 10000 nM

Compound: Nc1nc(N)c2nc(CNc3ccc(C(=O)N[C@@H](CCCNC(=O)c4ccccc4C(=O)O)C(=O)O)cc3)cnc2n1 [PT523]
IC50 ([7]; Table 11, read-out: IC50 FRα RT16): 409 nM
IC50 ([7]; with folic acid (+FA), read-out: IC50 FRα RT16 (+FA)): > 1000 nM
IC50 [8]: 1.28 nM

Compound: CNc1ccc(N(C)c2nc(C)nc3c2CCC3)cc1 [Section II compound 8]
IC50 [1]: 19.1 ± 3.9 nM
Rr* ([1]; relative resistance, β-III overexpressing HeLa vs parental HeLa): 0.6
IC50 [2]: 36.3 ± 3.3 nM
IC50 [3]: 49.7 ± 7.9 nM
IC50 [4]: 31 ± 1.6 nM

Compound: COc1ccc(CN(C)c2nc(C)nc3c2CCC3)cc1 [Section II compound 12]
EC50 [5, 16]: 11300 nM

Compound: COc1cccc2cc(N(C)c3nc(C)nc4ccn(C)c34)ccc12 [Table 3a 14]
IC50 ([9]; unit inferred): 2000 nM
EC50 [5, 17]: > 10000 nM

Compound: COc1ccc(N(C)c2nc(Cl)nc3ccn(C)c23)cc1 [Table 3a 19]
GI50 [10]: 9.3 ± 0.91 nM
IC50 [11]: 2.1 ± 0.3 nM
IC50 [12]: 6.3 ± 0.9 nM
IC50 ([9]; Homo sapiens, unit inferred): 1.3 nM
IC50 [13]: 12.4 ± 1.2 nM
IC50 [14]: 4.2 ± 0.9 nM
IC50 [15]: 3.1 ± 0.4 nM
EC50 [5, 18]: 1.48 nM

Compound: COc1ccc2c(c1)CCCN2c1nc(Cl)nc2ccn(C)c12 [Table 3a 23]
GI50 [10]: 7.6 ± 1 nM
IC50 [11]: 3 ± 0.3 nM
IC50 [12]: 9 ± 0.9 nM
IC50 ([9]; Homo sapiens, unit inferred): 4.1 ± 0.1 nM
IC50 [13]: 15.2 ± 2 nM
IC50 [14]: 8.4 ± 0.8 nM
IC50 [15]: 3.8 ± 0.5 nM
EC50 [5, 18]: 3.31 nM

Compound: CSc1ccc(N(C)c2nc(C)nc3ccn(C)c23)cc1 [Table 3a 26]
GI50 [10]: 363 ± 56.9 nM
IC50 [11]: 18.8 ± 4.1 nM
IC50 [12]: 54.8 ± 9.2 nM
IC50 ([9]; Homo sapiens, cells that print nM): 6.2 nM
IC50 [13]: 544 ± 77.2 nM
IC50 [14]: 450 ± 53.1 nM
IC50 [15]: 35.1 ± 6.3 nM
EC50 ([5]; Rattus norvegicus, A10, Table 3a, lines that print nM, read-out: EC50 for Microtubule Depolymerization in A · 10 Cells): 23 nM

Compound: CN(c1ccc(OC(F)(F)F)cc1)c1nc(Cl)nc2ccn(C)c12 [Table 3a 29]
IC50 ([9]; Homo sapiens, unit inferred): 49.3 ± 1.1 nM
EC50 [5, 18]: 139 nM

The next lines start with results.

IC50 [1]: 9.8 ± 0.9 nM
IC50 [3]: 22.6 ± 2.3 nM
Compound: Cc1nc2c(c(N(C)c3ccc(N(C)C)cc3)n1)CCC2 [Compound 9]
IC50 [2]: 13 ± 1 nM
IC50 [4]: 11 ± 1 nM

EC50 [5, 16]: > 10000 nM
Compound: COc1ccc([C@@H](C)N(C)c2nc(C)nc3c2CCC3)cc1 [Compound 11]

IC50 ([6]; Table 11, read-out: IC50 RFC/FRα/PCFT KB): 5.8 nM
IC50 ([6]; with folic acid (+FA), read-out: IC50 RFC/FRα/PCFT KB (+FA)): 32 nM
Compound: Cc1nc2ccc3ccc(CNc4ccc5c(c4)CN([C@@H](CCC(=O)O)C(=O)O)C5=O)cc3c2c(=O)[nH]1 [GW1843U89]

IC50 ([9]; unit inferred): 22.6 nM
EC50 [5, 17]: 50 nM
Compound: COc1cccc2cc(N(C)c3nc(Cl)nc4ccn(C)c34)ccc12 [Table 3a 15]

IC50 ([9]; unit inferred): 13.4 ± 0.5 nM
EC50 [5, 17]: 27.5 nM
Compound: COc1ccc(N(C)c2ncnc3ccn(C)c23)cc1 [Table 3a 17]

IC50 [12]: 16.4 ± 2.6 nM
IC50 ([9]; Homo sapiens, unit inferred): 3.6 ± 0.3 nM
IC50 [13]: 33.9 ± 3.9 nM
IC50 [14]: 10.8 ± 1.6 nM
EC50 [5, 18]: 2.7 nM
Compound: CSc1ccc(N(C)c2nc(Cl)nc3ccn(C)c23)cc1 [Table 3a 27]
GI50 [10]: 45.2 ± 5.2 nM
IC50 [11]: 8.2 ± 1.3 nM
IC50 [15]: 11.3 ± 1.8 nM
